Reference: ChEMBL document CHEMBL1201862, “PubChem BioAssay data set” (2004)
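96-well plates; 48 h exposure; 5 concentrations. Endpoints by linear interpolation between flanking doses. Not reached: highest tested concentration assigned. GI50: concentration for 50% inhibition of growth.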 Active and inactive are the calls of the source. No stated cut-off is given here; in the data, active = GI50 up to about 1.1 µM and inactive = higher.

Assays:
Test in all cases: DTP human tumour cell line panel, 48 h
SF-268 = system: SF-268
SK-MEL-28 = system: SK-MEL-28
SF-539 = system: SF-539
MDA-MB-231 = system: MDA-MB-231
NCI-H226 = system: NCI-H226
HCT-15 = system: HCT-15
NCI/ADR-RES = system: NCI/ADR-RES
IGROV-1 = system: IGROV-1
EKVX = system: EKVX
COLO 205 = system: COLO 205
T47D = system: T47D
HCC 2998 = system: HCC 2998
Hs-578T = system: Hs-578T
A549 = system: A549
U-251 = system: U-251
SK-OV-3 = system: SK-OV-3
OVCAR-3 = system: OVCAR-3
PC-3 = system: PC-3
NCI-H522 = system: NCI-H522
SW-620 = system: SW-620
MOLT-4 = system: MOLT-4
SK-MEL-5 = system: SK-MEL-5
K562 = system: K562
HT-29 = system: HT-29
OVCAR-5 = system: OVCAR-5
SK-MEL-2 = system: SK-MEL-2
SF-295 = system: SF-295
NCI-H23 = system: NCI-H23
UACC-62 = system: UACC-62
RXF 393 = system: RXF 393
KM12 = system: KM12
MDA-MB-435 = system: MDA-MB-435
DU-145 = system: DU-145
786-0 = system: 786-0
SR = system: SR
Malme-3M = system: Malme-3M
HL-60 = system: HL-60
HOP-62 = system: HOP-62
A498 = system: A498
MDA-N = system: MDA-N
OVCAR-4 = system: OVCAR-4
SNB-75 = system: SNB-75
LOX IMVI = system: LOX IMVI
CAKI-1 = system: CAKI-1
M14 = system: M14
TK-10 = system: TK-10
HOP-92 = system: HOP-92
CCRF-CEM = system: CCRF-CEM
NCI-H460 = system: NCI-H460
SNB-19 = system: SNB-19
HCT-116 = system: HCT-116
SN12C = system: SN12C
UO-31 = system: UO-31
RPMI-8226 = system: RPMI-8226
ACHN = system: ACHN

Structure (SMILES): COc1cccc(/C(CC(O)(C(F)(F)F)C(F)(F)F)=N\N(C)C)c1
- GI50 (SF-268): > 100 µM (inactive)
- GI50 (SK-MEL-28): > 100 µM (inactive)
- GI50 (SF-539): > 100 µM (inactive)
- GI50 (MDA-MB-231): > 100 µM (inactive)
- GI50 (NCI-H226): > 100 µM (inactive)
- GI50 (HCT-15): > 100 µM
- GI50 (NCI/ADR-RES): > 100 µM (inactive)
- GI50 (IGROV-1): > 100 µM (inactive)
- GI50 (EKVX): > 100 µM (inactive)
- GI50 (COLO 205): > 100 µM (inactive)
- GI50 (T47D): > 100 µM (inactive)
- GI50 (HCC 2998): > 100 µM (inactive)
- GI50 (Hs-578T): > 100 µM (inactive)
- GI50 (A549): > 100 µM (inactive)
- GI50 (U-251): > 100 µM (inactive)
- GI50 (SK-OV-3): > 100 µM (inactive)
- GI50 (OVCAR-3): > 100 µM (inactive)
- GI50 (PC-3): > 100 µM (inactive)
- GI50 (NCI-H522): > 100 µM (inactive)
- GI50 (SW-620): > 100 µM (inactive)
- GI50 (MOLT-4): > 100 µM (inactive)
- GI50 (SK-MEL-5): > 100 µM (inactive)
- GI50 (K562): > 100 µM (inactive)
- GI50 (HT-29): > 100 µM (inactive)
- GI50 (OVCAR-5): > 100 µM (inactive)
- GI50 (SK-MEL-2): > 100 µM (inactive)
- GI50 (SF-295): > 100 µM (inactive)
- GI50 (NCI-H23): > 100 µM (inactive)
- GI50 (UACC-62): > 100 µM (inactive)
- GI50 (RXF 393): > 100 µM (inactive)
- GI50 (KM12): > 100 µM (inactive)
- GI50 (MDA-MB-435): > 100 µM (inactive)
- GI50 (DU-145): > 100 µM (inactive)
- GI50 (786-0): > 100 µM (inactive)
- GI50 (SR): > 100 µM (inactive)
- GI50 (Malme-3M): > 100 µM (inactive)
- GI50 (HL-60): > 100 µM (inactive)
- GI50 (HOP-62): > 100 µM (inactive)
- GI50 (A498): > 100 µM (inactive)
- GI50 (MDA-N): > 100 µM (inactive)
- GI50 (OVCAR-4): > 100 µM (inactive)
- GI50 (SNB-75): > 100 µM (inactive)
- GI50 (LOX IMVI): > 100 µM (inactive)
- GI50 (CAKI-1): > 100 µM (inactive)
- GI50 (M14): > 100 µM (inactive)
- GI50 (TK-10): > 100 µM (inactive)
- GI50 (HOP-92): > 100 µM (inactive)
- GI50 (CCRF-CEM): > 100 µM (inactive)
- GI50 (NCI-H460): > 100 µM (inactive)
- GI50 (SNB-19): > 100 µM (inactive)
- GI50 (HCT-116): > 100 µM (inactive)
- GI50 (SN12C): > 100 µM (inactive)
- GI50 (UO-31): > 100 µM (inactive)
- GI50 (RPMI-8226): > 100 µM (inactive)
- GI50 (ACHN): > 100 µM (inactive)
